Assay results taken from patent publication US10358427B2, “Modulators of indoleamine 2,3-dioxygenase” (GLAXOSMITHKLINE INTELLECTUAL PROPERTY DEVELOPMENT LIMITED, priority 2015, dated 2019).
Where a name gives a salt, the structure may show the parent alone.

Tests used:
[1] = target: T1, indoleamine 2, 3-dioxygenase (IDO1) (Homo sapiens, UniProt P14902); assay: PBMC IDOi assay (kynurenine detection via mass spectrometry); type: cell-based; settings: human PBMC stimulated with IFN-γ and LPS; kynurenine by mass spectrometry; 2 days incubation
T1 sequence (P14902 whole entry): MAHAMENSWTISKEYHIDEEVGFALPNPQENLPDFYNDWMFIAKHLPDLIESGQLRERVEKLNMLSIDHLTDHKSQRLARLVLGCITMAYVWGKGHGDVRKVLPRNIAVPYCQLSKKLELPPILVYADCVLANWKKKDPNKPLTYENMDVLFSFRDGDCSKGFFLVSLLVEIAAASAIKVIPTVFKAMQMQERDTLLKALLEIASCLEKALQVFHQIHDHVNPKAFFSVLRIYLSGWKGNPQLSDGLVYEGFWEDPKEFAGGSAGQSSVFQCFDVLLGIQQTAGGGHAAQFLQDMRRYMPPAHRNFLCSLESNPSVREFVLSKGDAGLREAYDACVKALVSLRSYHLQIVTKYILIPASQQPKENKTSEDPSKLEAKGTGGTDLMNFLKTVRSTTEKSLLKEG
Experimental: (§1) Compounds of the present invention were tested via high-throughput cellular assays utilizing detection of kynurenine via mass spectrometry and cytotoxicity as end-points. For the mass spectrometry and cytotoxicity assays, human peripheral blood mononuclear cells (PBMC) (PB003F; AlICells®, Alameda, Calif.) were stimulated with human interferon-γ (IFN-γ) (Sigma-Aldrich Corporation, St. Louis, Mo.) and lipopolysaccharide from Salmonella minnesota (LPS) (Invivogen, San Diego, Calif.) to induce the expression of indoleamine 2, 3-dioxygenase (IDO1). Compounds with IDO1 inhibitory properties decreased the amount of kynurenine produced by the cells via the tryptophan catabolic pathway. Cellular toxicity due to the effect of compound treatment was measured using CellTiter-Glo® reagent (CTG) (Promega Corporation, Madison, Wis.), which is based on luminescent detection of ATP, an indicator of metabolically active cells.
(§2) In preparation for the assays, test compounds were serially diluted 3-fold in DMSO from a typical top concentration of 5 mM and plated at 0.5 μL in 384-well, polystyrene, clear bottom, tissue culture treated plates with lids (Greiner Bio-One, Kremsmünster, Austria) to generate 11-point dose response curves. Low control wells (0% kynurenine or 100% cytotoxicity) contained either 0.5 μL of DMSO in the presence of unstimulated (−IFN-γ/−LPS) PBMCs for the mass spectrometry assay or 0.5 μL of DMSO in the absence of cells for the cytotoxicity assay, and high control wells (100% kynurenine or 0% cytotoxicity) contained 0.5 μL of DMSO in the presence of stimulated (+IFN-γ/+LPS) PBMCs for both the mass spectrometry and cytotoxicity assays.
Frozen stocks of PBMCs were washed and recovered in RPMI 1640 medium (Thermo Fisher Scientific, Inc., Waltham, Mass.) supplemented with 10% v/v heat-inactivated fetal bovine serum (FBS) (Thermo Fisher Scientific, Inc., Waltham, Mass.), and 1× penicillin-streptomycin antibiotic solution (Thermo Fisher Scientific, Inc., Waltham, Mass.). The cells were diluted to 1,000,000 cells/mL in the supplemented RPMI 1640 medium. 50 μL of either the cell suspension, for the mass spectrometry assay, or medium alone, for the cytotoxicity assay, were added to the low control wells, on the previously prepared 384-well compound plates, resulting in 50,000 cells/well or 0 cells/well respectively. IFN-γ and LPS were added to the remaining cell suspension at final concentrations of 100 ng/ml and 50 ng/ml respectively, and 50 μL of the stimulated cells were added to all remaining wells on the 384-well compound plates. The plates, with lids, were then placed in a 37° C., 5% CO2 humidified incubator for 2 days.
(§3) Following incubation, the 384-well plates were removed from the incubator and allowed to equilibrate to room temperature for 30 minutes. For the cytotoxicity assay, CellTiter-Glo® was prepared according to the manufacturer's instructions, and 40 μL were added to each plate well. After a twenty minute incubation at room temperature, luminescence was read on an EnVision® Multilabel Reader (PerkinElmer Inc., Waltham, Mass.). For the mass spectrometry assay, 10 μL of supernatant from each well of the compound-treated plates were added to 40 μL of acetonitrile, containing 10 μM of an internal standard for normalization, in 384-well, polypropylene, V-bottom plates (Greiner Bio-One, Kremsmünster, Austria) to extract the organic analytes. Following centrifugation at 2000 rpm for 10 minutes, 10 μL from each well of the acetonitrile extraction plates were added to 90 μL of sterile, distilled H2O in 384-well, polypropylene, V-bottom plates for analysis of kynurenine and the internal standard on the RapidFire 300 (Agilent Technologies, Santa Clara, Calif.) and 4000 QTRAP MS (SCIEX, Framingham, Mass.). MS data were integrated using Agilent Technologies' RapidFire Integrator software, and data were normalized for analysis as a ratio of kynurenine to the internal standard. […]

[2] = target: T1, indoleamine 2, 3-dioxygenase (IDO1); assay: HeLa IDOi assay (kynurenine detection via mass spectrometry); type: cell-based; parameters: human epithelial HeLa cells (CCL-2; host or cells: HeLa cells stimulated with human IFN-γ; settings: human epithelial HeLa cells stimulated with IFN-γ; kynurenine by mass spectrometry; 2 days incubation
Experimental: as §1, with “epithelial HeLa” for “peripheral blood mononuclear”, “(CCL-2; ATCC®, Manassas, Va.)” for “(PBMC) (PB003F; AlICells®, Alameda, Calif.)”, “Mo.)” for “Mo.) and lipopolysaccharide from Salmonella minnesota (LPS) (Invivogen, San Diego, Calif.)”
as §2, with “(−IFN-γ) HeLa cells” for “(−IFN-γ/−LPS) PBMCs”, “(+IFN-γ) HeLa cells” for “(+IFN-γ/+LPS) PBMCs”
Frozen stocks of HeLa cells were washed and recovered in DMEM high glucose medium with HEPES (Thermo Fisher Scientific, Inc., Waltham, Mass.) supplemented with 10% v/v certified fetal bovine serum (FBS) (Thermo Fisher Scientific, Inc., Waltham, Mass.), and 1× penicillin-streptomycin antibiotic solution (Thermo Fisher Scientific, Inc., Waltham, Mass.). The cells were diluted to 100,000 cells/mL in the supplemented DMEM medium. 50 μL of either the cell suspension, for the mass spectrometry assay, or medium alone, for the cytotoxicity assay, were added to the low control wells, on the previously prepared 384-well compound plates, resulting in 5,000 cells/well or 0 cells/well respectively. IFN-γ was added to the remaining cell suspension at a final concentration of 10 nM, and 50 μL of the stimulated cells were added to all remaining wells on the 384-well compound plates. The plates, with lids, were then placed in a 37° C., 5% CO2 humidified incubator for 2 days.
as §3, with “instructions, and 10 μL were” for “instructions, and 40 μL were”

Q: What does the source list for `Cc1cc(Nc2cc(-c3ccccc3-c3nn[nH]n3)ccc2N(CC(C)C)CC(C)C)no1` [Example 12, N^4,N^4-diisobutyl-N^3-(5-methylisoxazol-3-yl)-2′-(2H-tetrazol-5-yl)-[1,1′-biphenyl]-3,4-diamine]?
A: EC50 [1]: 39.8 nM; EC50 [2]: 158 nM

Q: Which EC50 [1] does the source give for `CC(C)CN(c1ccc(-c2ccccc2-c2nnn[nH]2)cc1Nc1nc(C(F)(F)F)ns1)C1CCCCC1` [Example 18, N^4-cyclohexyl-N^4-isobutyl-2′-(1H-tetrazol-5-yl)-N^3-(3-(trifluoromethyl)-1,2,4-thiadiazol-5-yl)-[1,1′-biphenyl]-3,4-diamine] here?
A: The EC50 was 1.26 nM.

Q: What about the EC50 [2] of the same compound?
A: Its EC50 is 2.51 nM.

Q: Which EC50 [1] does the source give for `CC(C)CN(c1ccc(-c2ccccc2-c2nnn[nH]2)cc1Nc1nc2ccccc2[nH]1)C1CCCCC1` [Example 19, N^3-(1H-benzo[d]imidazol-2-yl)-N^4-cyclohexyl-N^4-isobutyl-2′-(1H-tetrazol-5-yl)-[1,1′-biphenyl]-3,4-diamine] here?
A: Its EC50 is 1.58 nM.

Q: What about the EC50 [2] of the same compound?
A: The EC50 was 6.31 nM.

Q: `CC(C)CN(c1ccc([C@H]2C[C@H]2C(=O)O)cc1Nc1nc(-c2ccccc2)co1)C1CCCCC1` (relative stereo) [Example 5, cis-2-(4-(Cyclohexyl(isobutyl)amino)-3-((4-phenyloxazol-2-yl)amino)phenyl)cyclopropanecarboxylic acid] was tested. Which EC50 [2] did it give?
A: The EC50 was 398 nM.

Q: With `CC(C)CN(c1ccc(-c2ccccc2C(=O)O)cc1Nc1nc2ccccc2[nH]1)C1CCCCC1` [Example 8, 3′-((1H-Benzo[d]imidazol-2-yl)amino)-4′-(cyclohexyl(isobutyl)amino)-[1,1′-biphenyl]-2-carboxylic acid] as the compound, how does the EC50 [2] read?
A: Its EC50 is 7.94 nM.

Q: How did the EC50 [1] turn out when `C/C=C/Cc1cc(-c2ccccc2-c2nnn[nH]2)cc(Nc2nc3ccccc3o2)c1OCCC` [Example 13, (E)-N-(5-(But-2-en-1-yl)-4-propoxy-2′-(1H-tetrazol-5-yl)-[1,1′-biphenyl]-3-yl)benzo[d]oxazol-2-amine, Trifluoroacetic acid Salt] was run?
A: Its EC50 is 7.94 nM.

Q: And the EC50 [2]?
A: Its EC50 is 3.98 nM.

Q: `CC(C)CN(c1ccc(C2CC2C(=O)O)cc1Nc1nc2ccccc2[nH]1)C1CCCCC1` (stereo not drawn) [Example 2, cis-2-(3-((1H-Benzo[d]imidazol-2-yl)amino)-4-(cyclohexyl(isobutyl)amino)phenyl)cyclopropanecarboxylic acid] was tested. Which EC50 [2] did it give?
A: The EC50 was 5.01 nM.

Q: How did the EC50 [1] turn out when `CC(C)CN(c1ccc(-c2ccccc2-c2nnn[nH]2)cc1Nc1nc2ccccc2o1)C1CCCCC1` [Example 11, N^3-(Benzo[d]oxazol-2-yl)-N^4-cyclohexyl-N^4-isobutyl-2′-(1H-tetrazol-5-yl)-[1,1′-biphenyl]-3,4-diamine] was run?
A: The EC50 was 15.8 nM.

Q: And the EC50 [2]?
A: Its EC50 is 25.1 nM.

Q: Which results are given for `CC(C)CN(c1ccc(-c2ccccc2C(=O)O)cc1Nc1nc(C(F)(F)F)ns1)C1CCCCC1` [Example 17, 4′-(Cyclohexyl(isobutyl)amino)-3′((3-(trifluoromethyl)-1,2,4-thiadiazol-5-yl)amino)-[1,1′-biphenyl]-2-carboxylic acid]?
A: EC50 [1]: 1 nM; EC50 [2]: 2 nM

Q: Which results are given for `CC(C)CN(c1ccc([C@H]2C[C@H]2C(=O)O)cc1Nc1nc(C(F)(F)F)ns1)C1CCCCC1` (relative stereo) [Example 6, cis-2-(4-(Cyclohexyl(isobutyl)amino)-3-((3-(trifluoromethyl)-1,2,4-thiadiazol-5-yl)amino)phenyl)cyclopropanecarboxylic acid, 2,2,2-trifluoroacetic acid]?
A: EC50 [1]: 1.26 nM; EC50 [2]: 10 nM

Q: Which EC50 [1] does the source give for `CC(C)CN(c1ccc([C@H]2C[C@H]2C(=O)O)cc1Nc1nc(Cl)ns1)C1CCCCC1` (relative stereo) [Example 4, cis-2-(3-((3-Chloro-1,2,4-thiadiazol-5-yl)amino)-4-(cyclohexyl(isobutyl)amino)phenyl)cyclopropanecarboxylic acid] here?
A: The EC50 was 1.26 nM.

Q: What about the EC50 [2] of the same compound?
A: Its EC50 is 10 nM.

Q: For `CC(C)CN(c1ccc([C@H]2C[C@H]2C(=O)O)cc1Nc1nc2ccccc2s1)C1CCCCC1` (relative stereo) [Example 3, cis-2-(3-(Benzo[d]thiazol-2-ylamino)-4-(cyclohexyl(isobutyl)amino)phenyl)cyclopropanecarboxylic acid], which EC50 [2] is on record?
A: The EC50 was 15.8 nM.

Q: How did the EC50 [2] turn out when `CC(C)CN(c1ccc(-c2ccccc2-c2nnn[nH]2)cc1Nc1nc(Cl)ns1)C1CCCCC1` [Example 10, N^3-(3-Chloro-1,2,4-thiadiazol-5-yl)-N^4-cyclohexyl-N^4-isobutyl-2′-(1H-tetrazol-5-yl)-[1,1′-biphenyl]-3,4-diamine] was run?
A: Its EC50 is 12.6 nM.

Q: `CC(C)CN(c1ccc([C@H]2C[C@H]2C(=O)O)cc1Nc1nc2ccccc2o1)C1CCCCC1` (relative stereo) [Example 1, cis-2-(3-(Benzo[d]oxazol-2-ylamino)-4-(cyclohexyl(isobutyl)amino)phenyl)cyclopropanecarboxylic acid] was tested. Which EC50 [2] did it give?
A: Its EC50 is 100 nM.

Q: Which EC50 [2] does the source give for `C/C=C/Cc1cc(-c2ccccc2-c2nnn[nH]2)cc(Nc2nc(Cl)ns2)c1OCCC` [Example 15, (E)-N-(5-(But-2-en-1-yl)-4-propoxy-2′-(1H-tetrazol-5-yl)-[1,1′-biphenyl]-3-yl)-3-chloro-1,2,4-thiadiazol-5-amine, Trifluoroacetic acid Salt] here?
A: Its EC50 is 126 nM.
